“Also recorded” adds a separate entry of the source. Blank lines part the entries; values can stand above or below the compound they belong to.
How the values were obtained:
Format in all cases: biochemical, Talaromyces emersonii
EG VII = test: Effects of metal ions, chemical modification reagents, detergents and potential inhibitors on EG VII; details: for EG VII activity, Enzyme + reagent (control = 100.0): Preincubation of enzyme with reagent for 30 min (50 C) prior to addition of substrate; for EG VII activity, Substrate + reagent (control = 100.0): Preincubation of substrate with reagent for 30 min (50 C) prior to addition of enzyme
Description: (§1) Substrate specificity on various polysaccharides and synthetic glycosides was evaluated by 15 measuring activity against a wide variety of carbohydrates (BBG, lichenan, CMC, other polysaccharides and synthetic glycosides) using the normal β-glucanase assay procedure. • Effects Of Metal Ions, Chemical Modification Reagents And Potential Inhibitors A range of monovalent, divalent and heavy metal ions, at final assay concentrations of 1.0 mM, were investigated for their potential effects on the activities of EG V, EG VI and EG VII, by incubating the enzymes with the chemicals and then conducting the normal enzyme assay. Finally, the inhibitor effects of glycosides, such as disaccharides, lactones and flavanoid glycosides on the purified enzymes were examined. Specified concentrations of each glycoside were included in normal assay cocktails and residual activity determined by comparison with controls (no glycoside present).
(§2) Activity was expressed as a % relative to a control (no metal ion present in incubation mixture). In general, heavy metal ions are thought to inactivate enzymes by forming covalent salts with cysteine, histidine or carboxyl groups. […] A selection of reagents known to modify amino acid R-groups in proteins were tested for their effects on EG V, EG VI and EG VII, both in the absence and presence of substrate (substrate-protective effects could be observed in this manner) (see Table 6).

EG V = test: Effects of metal ions, chemical modification reagents, detergents and potential inhibitors on EG V; details: for EG V activity, Enzyme + reagent (control = 100.0): Preincubation of enzyme with reagent for 30 min (50 C) prior to addition of substrate; for EG V activity, Substrate + reagent (control = 100.0): Preincubation of substrate with reagent for 30 min (50 C) prior to addition of enzyme
Description: as §1, §2

EG V, EG VI and EG VII = test: Effects of metal ions, reagents, phenolics and glycosides stated for all three enzymes; details: for inhibition by sulphydryl reagents: in the presence or absence of substrate; for effect of phenolic substances on enzyme activity: pre-incubation of enzyme with compound in the absence of substrate
Description: as §1, §2

EG VI = test: Effects of metal ions, chemical modification reagents, detergents and potential inhibitors on EG VI; details: for EV VI activity, Enzyme + reagent (control = 100.0): Preincubation of enzyme with reagent for 30 min (50 C) prior to addition of substrate; for EGVI activity, Substrate + reagent (control = 100.0): Preincubation of substrate with reagent for 30 min (50 C) prior to addition of enzyme; for decrease in activity of EG VI: 1 mM metal ion, relative to control without metal ion
Description: as §1, §2

Compound: NC(=O)CI [Iodoacetamide]
- EG VII activity, Enzyme + reagent (control = 100.0) (EG VII): 101.6
- EG VII activity, Substrate + reagent (control = 100.0) (EG VII): 83.7
- EG V activity, Enzyme + reagent (control = 100.0) (EG V): 103.6
- EG V activity, Substrate + reagent (control = 100.0) (EG V): 87.4
- inhibition by sulphydryl reagents (EG V, EG VI and EG VII): little or no inhibition
- EV VI activity, Enzyme + reagent (control = 100.0) (EG VI): 99.9
- EGVI activity, Substrate + reagent (control = 100.0) (EG VI): 122.6

- effect of phenolic substances on enzyme activity (EG V, EG VI and EG VII): did not have a marked inhibitory effect
Compound: COc1cc(/C=C/C(=O)O)ccc1O [ferulic acid]

- effect of phenolic substances on enzyme activity (EG V, EG VI and EG VII): did not have a marked inhibitory effect
Compound: O=C(O)/C=C/c1ccccc1O [o-coumaric acid]

Compound: Oc1cccc(-c2ccccc2)c1 [m-phenylphenol]
- effect of phenolic substances on enzyme activity (EG V, EG VI and EG VII): did not have a marked inhibitory effect

Compound: O=C(O)c1cc[c]([Hg+])cc1.[OH-] [p-Hydroxymercuribenzoate]
- EG VII activity, Enzyme + reagent (control = 100.0) (EG VII): 99.5
- EG VII activity, Substrate + reagent (control = 100.0) (EG VII): 94.8
- EG V activity, Enzyme + reagent (control = 100.0) (EG V): 92.8
- EG V activity, Substrate + reagent (control = 100.0) (EG V): 261.7
- inhibition by sulphydryl reagents (EG V, EG VI and EG VII): little or no inhibition
- EV VI activity, Enzyme + reagent (control = 100.0) (EG VI): 98.3
- EGVI activity, Substrate + reagent (control = 100.0) (EG VI): 125.0

- effect of phenolic substances on enzyme activity (EG V, EG VI and EG VII): did not have a marked inhibitory effect
Compound: Oc1cc(O)c2c(c1)O[C@H](c1ccc(O)c(O)c1)[C@H](O)C2 [(−)epicatechin]

Compound: COc1cc(C(=O)O)cc(OC)c1O [syringic acid]
- effect of phenolic substances on enzyme activity (EG V, EG VI and EG VII): did not have a marked inhibitory effect; also recorded: markedly activated

- effect of glycosides/disaccharides on activity of EG V-VII (EG V, EG VI and EG VII): no apparent effect
Compound: OC[C@H]1O[C@H](O[C@H]2[C@H](O)[C@@H](O)[C@H](O)O[C@@H]2CO)[C@H](O)[C@@H](O)[C@@H]1O [maltose]

- effect of metal ion on activity of all three enzymes (EG V, EG VI and EG VII; 1 mM metal ion): enhanced the activity
Compound: [Mo] [Mo^6+]

- decrease in activity of all three enzymes (EG V, EG VI and EG VII; 1 mM metal ion): 35.4-88.0%
- effect of metal ion on activity of all three enzymes (EG V, EG VI and EG VII; 1 mM metal ion): markedly decreased activity
Compound: [Fe+2] [Fe^2+]
- enhancement of EG VII activity by SO4^2− salt relative to corresponding Cl^− salt (EG VII; 1 mM): ~4.5 fold
- effect of metal ion on EG VII (EG VII; 1 mM metal ion): minimum effects
- increase in activity of EG V (EG V; 1 mM metal ion, relative to control without metal ion): 20%
- decrease in activity of EG VI (EG VI): 38.6%
- decrease in activity of EG VI (EG VI; listed as Fe^3+): 53.6-59.3%

- effect of phenolic substances on enzyme activity (EG V, EG VI and EG VII): did not have a marked inhibitory effect
- effect of phenolic substances on enzyme activity (EG V, EG VI and EG VII; listed as cafeic acid): markedly activated
Compound: O=C(O)/C=C/c1ccc(O)c(O)c1 [caffeic acid]

- effect of metal ion on activity of all three enzymes (EG V, EG VI and EG VII; 1 mM metal ion): enhanced the activity
Compound: [Zn+2] [Zn^230]

- effect of metal ion on activity of all three enzymes (EG V, EG VI and EG VII; 1 mM metal ion): enhanced the activity
Compound: [Mg+2] [Mg^2+]
- decrease of EG V activity by SO4^2− salt relative to Cl^− salt of same cation (EG V; 1 mM): 54.2%
- decrease of EG VI activity by SO4^2− salt relative to Cl^− salt of same cation (EG VI; 1 mM): 50.1%

- effect of glycosides/disaccharides on activity of EG V-VII (EG V, EG VI and EG VII): no apparent effect
Compound: OC[C@H]1O[C@@](CO)(O[C@H]2O[C@H](CO)[C@@H](O)[C@H](O)[C@H]2O)[C@@H](O)[C@@H]1O [sucrose]

Compound: O=c1ccc2cc(O[C@@H]3O[C@H](CO)[C@@H](O)[C@H](O)[C@H]3O)c(O)cc2o1 [esculin]
- effect of glycosides/disaccharides on activity of EG V-VII (EG V, EG VI and EG VII): no apparent effect

- effect of metal ion on activity of all three enzymes (EG V, EG VI and EG VII; 1 mM metal ion): markedly decreased activity
Compound: [Ag+] [Ag^+]

- effect of phenolic substances on enzyme activity (EG V, EG VI and EG VII): did not have a marked inhibitory effect
Compound: Oc1cc(O)c2c(c1)O[C@H](c1ccc(O)c(O)c1)[C@@H](O)C2 [(+)catechin]

- effect of glycosides/disaccharides on activity of EG V-VII (EG V, EG VI and EG VII): no apparent effect
Compound: OC[C@H]1O[C@H](OCC2O[C@@H](O)[C@H](O)[C@@H](O)[C@@H]2O)[C@H](O)[C@@H](O)[C@H]1O (stereo partly drawn) [melibiose]
